ChEMBL document CHEMBL1201862, “PubChem BioAssay data set” (2004)
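Grown in 96-well plates, cells were treated for 48 hours with each compound at five concentrations. Insufficient inhibition: endpoint recorded as highest concentration tested. The concentration for 50% growth inhibition is given as GI50.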 The source made the active and inactive calls. No stated cut-off is given here; in the data, active = GI50 up to about 1.1 µM and inactive = higher.

Legend:
Experiment in all cases: inhibition of tumour cell growth, NCI panel, 48 h
[1] = system: U-251
[2] = system: HOP-62
[3] = system: RXF 393
[4] = system: KM12
[5] = system: SN12C
[6] = system: SK-OV-3
[7] = system: SF-295
[8] = system: HL-60
[9] = system: UACC-62
[10] = system: HT-29
[11] = system: SNB-19
[12] = system: Malme-3M
[13] = system: NCI-H460
[14] = system: CCRF-CEM
[15] = system: COLO 205
[16] = system: K562
[17] = system: HCC 2998
[18] = system: SR
[19] = system: M14
[20] = system: ACHN

Measured: GI50

COc1cc(/C=C/C(=O)O)ccc1C(=O)O/C=C/c1ccccc1
inactive: [1] > 100 µM | [2] > 100 µM | [3] > 100 µM | [4] > 100 µM | [5] > 100 µM | [6] > 100 µM | [7] > 100 µM | [8] 45.3 µM | [9] > 100 µM | [10] > 100 µM | [11] > 100 µM | [12] > 100 µM | [13] > 100 µM | [14] 60.7 µM | [15] > 100 µM | [16] > 100 µM

CC(C)C(=O)CC(c1ccc(Br)cc1)N1N=C(C(C)C)CC1c1ccc(Br)cc1 (stereo not given)
inactive: [1] 48.8 µM | [2] > 100 µM | [3] 16.9 µM | [4] > 100 µM | [5] > 100 µM | [6] 34.5 µM | [10] 18.6 µM | [11] 50.7 µM | [17] 34.2 µM | [12] 31.4 µM | [13] 51.2 µM | [14] 30.5 µM | [18] 69 µM | [19] 66.1 µM | [20] > 100 µM | [15] > 100 µM | [16] 64.4 µM

COc1ccc2[nH]c3c(C)c4ccnc(NCCCN(C)CCCNc5ccc6nnn7c8ccccc8c(=O)c5c67)c4c(C)c3c2c1
active: [1] 0.223 µM | [2] 0.714 µM | [3] 1.03 µM | [4] 0.432 µM | [5] 0.242 µM | [7] 0.14 µM | [8] 0.135 µM | [10] 0.0266 µM | [11] 0.711 µM | [17] 0.209 µM | [13] 0.0399 µM | [14] 0.0047 µM | [18] 0.335 µM | [19] 0.938 µM | [20] 0.0773 µM | [15] 0.367 µM | [16] 0.226 µM
inactive: [6] 2.64 µM | [9] > 10 µM

ICC1CCCO1 (stereo not given)
inactive: [1] > 100 µM | [3] > 100 µM | [4] > 100 µM | [5] > 100 µM | [7] > 100 µM | [8] > 100 µM | [10] > 100 µM | [11] > 100 µM | [17] > 100 µM | [12] > 100 µM | [13] > 100 µM | [14] > 100 µM | [18] > 100 µM | [19] > 100 µM | [20] > 100 µM | [15] > 100 µM

CC(C)=CCc1c(C)cc2cc3c(c(O)c2c1O)C(=O)C=C(O)C3(CC=C(C)C)C/C=C(\C)CO (stereo not given)
inactive: [1] 29.6 µM | [2] 36.8 µM | [3] 29 µM | [4] 41.9 µM | [5] 31.1 µM | [6] 36.7 µM | [7] 45.2 µM | [8] 19.4 µM | [9] 32.3 µM | [10] 37.2 µM | [11] 39.8 µM | [17] 45.2 µM | [12] 32.3 µM | [13] 27.4 µM | [14] 11.5 µM | [15] 40.5 µM | [16] 23.3 µM

O=C1c2ccccc2C(=O)N1CC(CN1C(=O)c2ccccc2C1=O)(C(=O)OCc1ccccc1)C(=O)OCc1ccccc1
inactive: [1] > 100 µM | [2] > 100 µM | [3] 14.4 µM | [4] > 100 µM | [5] > 100 µM | [6] > 100 µM | [7] > 100 µM | [8] > 100 µM | [9] > 100 µM | [10] > 100 µM | [11] > 100 µM | [17] > 100 µM | [12] > 100 µM | [13] > 100 µM | [14] 6.11 µM | [18] > 100 µM | [19] > 100 µM | [15] > 100 µM

CC(=O)OC1CCn2c1nc1cc([N+](=O)[O-])c(C)cc12 (stereo not given)
inactive: [1] > 100 µM | [3] > 100 µM | [4] > 100 µM | [5] > 100 µM | [6] > 100 µM | [7] > 100 µM | [8] > 100 µM | [9] > 100 µM | [10] > 100 µM | [11] > 100 µM | [17] > 100 µM | [12] > 100 µM | [13] > 100 µM | [14] > 100 µM | [18] > 100 µM | [19] > 100 µM | [20] > 100 µM | [15] > 100 µM | [16] > 100 µM

FC(F)(F)C1=NC(=NNc2nnc(-c3ccccc3)c(-c3ccccc3)n2)N=C(C(F)(F)F)C1
inactive: [1] > 29 µM | [2] 13.4 µM | [3] 7.57 µM | [4] 33.2 µM | [5] > 72.9 µM | [6] 60.4 µM | [7] 8.2 µM | [8] 5.22 µM | [9] 3.54 µM | [10] 16.6 µM | [11] 35 µM | [17] 9.12 µM | [12] > 100 µM | [13] 7.71 µM | [14] 7.29 µM | [15] 6.08 µM | [16] 4.11 µM

O=C1C=C(N2CC2)C(=O)C=C1N1CC1
active: [1] 0.229 µM | [2] 0.136 µM | [3] 0.0634 µM | [4] 0.824 µM | [5] 0.122 µM | [6] 0.522 µM | [7] 0.155 µM | [8] 0.0265 µM | [9] 0.178 µM | [10] 0.204 µM | [11] 0.904 µM | [17] 0.307 µM | [12] 0.107 µM | [13] 0.0401 µM | [14] 0.0291 µM | [18] 0.0258 µM | [19] 0.091 µM | [20] 0.0423 µM | [15] 0.0984 µM

C[C@H](CN1CC(=O)NC(=O)C1)N1CC(=O)NC(=O)C1
inactive: [1] 58.2 µM | [2] > 65 µM | [3] > 100 µM | [4] > 100 µM | [5] > 85.3 µM | [6] > 100 µM | [7] > 100 µM | [9] > 100 µM | [10] > 100 µM | [11] 50.4 µM | [17] 22.7 µM | [12] 42.9 µM | [13] 9.31 µM | [14] 34.3 µM | [15] 11.7 µM | [16] > 84.3 µM

COc1ccc2c(c1)CCCc1cn[nH]c1-2
inactive: [1] > 100 µM | [2] > 100 µM | [3] > 89.1 µM | [4] > 100 µM | [5] > 100 µM | [6] > 100 µM | [7] > 100 µM | [8] > 100 µM | [9] > 100 µM | [10] > 100 µM | [11] > 100 µM | [17] > 100 µM | [12] > 100 µM | [13] > 100 µM | [14] > 72.4 µM | [15] > 100 µM | [16] > 65.8 µM

CC(C)C1OC(=O)/C=C/C=C/C=C/C=C/C=C/CC(O)C(C)C(O)CC(O)CC(O)CC(O)CC(O)CC(O)CC(O)/C=C/C1C (stereo not given)
inactive: [1] > 100 µM | [2] > 100 µM | [4] > 100 µM | [6] > 100 µM | [7] > 100 µM | [8] > 100 µM | [9] > 100 µM | [10] > 100 µM | [11] > 100 µM | [17] > 100 µM | [12] 70.5 µM | [13] > 100 µM | [14] > 100 µM | [18] > 100 µM | [19] > 100 µM | [20] > 100 µM | [16] > 100 µM

CCCNC1=NC(C)=CSC(Nc2ccccc2)=C1C#N
inactive: [1] > 100 µM | [2] > 100 µM | [3] > 100 µM | [4] > 100 µM | [5] > 100 µM | [6] > 100 µM | [7] > 100 µM | [9] > 100 µM | [11] > 100 µM | [12] > 100 µM | [18] > 100 µM | [19] > 100 µM | [20] > 100 µM | [15] > 100 µM | [16] > 100 µM

CCOC(=O)C1(C(=O)OCC)CSC1
inactive: [1] > 100 µM | [3] > 100 µM | [4] > 100 µM | [5] > 100 µM | [6] > 100 µM | [7] > 100 µM | [10] > 100 µM | [11] > 100 µM | [14] > 100 µM | [18] > 100 µM | [19] > 100 µM | [20] > 100 µM | [15] > 100 µM | [16] > 100 µM
active: [17] 0.192 µM | [13] 0.263 µM

O=C1C2=C(C3=NCCc4c[nH]c1c43)C1(C=C(Br)C(O)C(Br)=C1)CCN2 (stereo not given)
inactive: [1] 2.26 µM | [2] 17.9 µM | [3] 2.56 µM | [4] 1.82 µM | [5] 1.29 µM | [6] 13.3 µM | [7] 2.48 µM | [11] 11.1 µM | [17] 1.18 µM | [13] 2.33 µM | [14] 1.96 µM | [16] 2.3 µM
active: [8] 0.558 µM | [9] 0.851 µM | [10] 0.312 µM | [15] 0.115 µM

N#Cc1c(NC(=S)Nc2ccc(Cl)cc2)sc2c1CCCC2
inactive: [1] > 100 µM | [3] > 100 µM | [4] > 100 µM | [5] 3.37 µM | [7] > 100 µM | [8] 34.8 µM | [9] > 100 µM | [10] > 100 µM | [11] > 100 µM | [17] 64.1 µM | [12] 41.2 µM | [18] 25.1 µM | [20] > 100 µM | [15] > 100 µM | [16] 29.4 µM
